Source: patent US6624310B1, “Epothilone minor constituents” (Gesellschaft fuer Biotechnologische Forschung, mbH (GBF), priority 1998, dated 2003)
In brackets after ≈: the same amount, converted by molar mass.

Test system: mouse fibroblasts (L929)
Assay: Activity against mouse fibroblasts (L929)
Assay type: cell-based
Details: not given

| Compound | Activity against mouse fibroblasts (L929, IC 50/ng/ml) |
| --- | --- |
| C/C(=C\c1csc(CO)n1)[C@@H]1C[C@@H]2O[C@]2(C)CCC[C@H](C)[C@H](O)[C@@H](C)C(=O)C(C)(C)[C@@H](O)CC(=O)O1 [Compound 4, Epothilone F, reference compound] | (4) 1.5 ng/ml |

Same assay, conditions: L929 mouse fibroblasts

| Compound | Activity against mouse fibroblasts (L929, IC 50/ng/ml) |
| --- | --- |
| C/C(=C\c1csc(C)n1)[C@@H]1C/C=C/CCC[C@H](C)[C@H](O)[C@@H](C)C(=O)[C@@H](C)[C@@H](O)CC(=O)O1 (relative stereo) [Compound 28, trans-Epothilone C1] | (28) 400 ng/ml |
| C/C(=C\c1csc(C)n1)[C@@H]1C/C=C/CCC[C@H](C)[C@H](O)[C@@H](C)C(=O)[C@H](C)[C@@H](O)CC(=O)O1 (relative stereo) [Compound 29, trans-Epothilone C2] | (29) 80 ng/ml |
| C/C(=C\c1csc(C)n1)[C@@H]1C[C@@H]2O[C@@H]2CCC[C@H](C)[C@H](O)[C@@H](C)C(=O)C(C)(C)[C@@H](O)CC(=O)O1 [Compound 1, Epothilone A, reference compound] | (1) 4 ng/ml |
| C/C(=C\c1csc(C)n1)[C@@H]1C[C@@H]2O[C@]2(C)CCC[C@H](C)[C@H](O)[C@@H](C)C(=O)C(C)(C)[C@@H](O)CC(=O)O1 [Compound 2, Epothilone B, reference compound] | (2) 1-2 ng/ml |
| C/C(=C\c1csc(CO)n1)[C@@H]1C[C@@H]2O[C@@H]2CCC[C@H](C)[C@H](O)[C@@H](C)C(=O)C(C)(C)[C@@H](O)CC(=O)O1 [Compound 3, Epothilone E, reference compound] | (3) 10 ng/ml |
| C/C(=C\c1csc(C)n1)[C@@H]1C[C@@H]2O[C@@H]2CCC[C@H](C)[C@H](O)[C@@H](C)C(=O)[C@H](C)[C@@H](O)CC(=O)O1 [Compound 5, Epothilone A1] | (5) 20 ng/ml |
| C/C(=C\c1csc(C)n1)[C@@H]1C[C@@H]2O[C@@H]2CCC[C@H](C)[C@H](O)[C@@H](C)C(=O)[C@@H](C)[C@@H](O)CC(=O)O1 [Compound 6, Epothilone A2] | (6) 7 ng/ml |
| Cc1nc(/C=C/[C@@H]2C[C@@H]3O[C@@H]3CCC[C@H](C)[C@H](O)[C@@H](C)C(=O)C(C)(C)[C@@H](O)CC(=O)O2)cs1 [Compound 7, Epothilone A8] | (7) 20 ng/ml |
| Cc1nc(/C=C(\CO)[C@@H]2C[C@@H]3O[C@@H]3CCC[C@H](C)[C@H](O)[C@@H](C)C(=O)C(C)(C)[C@@H](O)CC(=O)O2)cs1 [Compound 8, Epothilone A9] | (8) 100 ng/ml |
| C/C(=C\c1coc(C)n1)[C@@H]1C[C@@H]2O[C@]2(C)CCC[C@H](C)[C@H](O)[C@@H](C)C(=O)C(C)(C)[C@@H](O)CC(=O)O1 [Compound 11, Epothilone G2] | (11) 1 ng/ml |
| C/C(=C\c1coc(C)n1)[C@@H]1C/C=C\CCC[C@H](C)[C@H](O)[C@@H](C)C(=O)C(C)(C)[C@@H](O)CC(=O)O1 [Compound 12, Epothilone H1] | (12) 120 ng/ml |
| C/C1=C/C[C@@H](/C(C)=C/c2coc(C)n2)OC(=O)C[C@H](O)C(C)(C)C(=O)[C@H](C)[C@@H](O)[C@@H](C)CCC1 [Compound 13, Epothilone H2] | (13) 11 ng/ml |
| C/C(=C\c1csc(C)n1)[C@@H]1C/C=C\CCC[C@H](C)[C@H](O)[C@@H](C)C(=O)C(C)(C)[C@@H](O)CC(=O)O1 [Compound 14, Epothilone C, reference compound] | (14) 50-100 ng/ml |
| C/C1=C/C[C@@H](/C(C)=C/c2csc(C)n2)OC(=O)C[C@H](O)C(C)(C)C(=O)[C@H](C)[C@@H](O)[C@@H](C)CCC1 [Compound 15, Epothilone D, reference compound] | (15) 20 ng/ml |
| C/C(=C\c1csc(C)n1)[C@@H]1C/C=C\CCC[C@H](C)[C@H](O)[C@@H](C)C(=O)[C@H](C)[C@@H](O)CC(=O)O1 [Compound 16, Epothilone C1] | (16) 200 ng/ml |
| C/C1=C/C[C@@H](/C(C)=C/c2csc(C)n2)OC(=O)C[C@H](O)[C@@H](C)C(=O)[C@H](C)[C@@H](O)[C@@H](C)CCC1 [Compound 17, Epothilone D1] | (17) 20 ng/ml |
| C/C1=C/C[C@@H](/C(C)=C/c2csc(C)n2)OC(=O)C[C@H](O)[C@H](C)C(=O)[C@H](C)[C@@H](O)[C@@H](C)CCC1 [Compound 19, Epothilone D2] | (19) 12 ng/ml |
| C/C(=C\c1csc(C)n1)[C@@H]1C/C=C\CCC[C@H](C)[C@H](O)CC(=O)C(C)(C)[C@@H](O)CC(=O)O1 [Compound 20, Epothilone C3] | (20) 1500 ng/ml |
| C/C(=C\c1csc(C)n1)[C@@H]1C/C=C\CCCC[C@H](O)[C@@H](C)C(=O)C(C)(C)[C@@H](O)CC(=O)O1 [Compound 21, Epothilone C4] | (21) 800 ng/ml |
| C/C(=C\c1csc(C)n1)[C@@H]1C/C=C\CC/C=C(\C)[C@H](O)[C@@H](C)C(=O)C(C)(C)[C@@H](O)CC(=O)O1 [Compound 22, Epothilone C5] | (22) 1500 ng/ml |
| Cc1nc(/C=C/[C@@H]2C/C=C\CCC[C@H](C)[C@H](O)[C@@H](C)C(=O)C(C)(C)[C@@H](O)CC(=O)O2)cs1 [Compound 26, Epothilone C8] | (26) 250 ng/ml |
| Cc1nc(/C=C(\CO)[C@@H]2C/C=C\CCC[C@H](C)[C@H](O)[C@@H](C)C(=O)C(C)(C)[C@@H](O)CC(=O)O2)cs1 [Compound 27, Epothilone C9] | (27) 200 ng/ml |
| Epothilone D5 [Compound 23] | (23) 200 ng/ml |

Same assay, conditions: L929 mouse fibroblasts; read-out: Activity against mouse fibroblasts (L929, IC 50/ng/ml)

| Compound | IC50 |
| --- | --- |
| CCc1nc(/C=C(\C)[C@@H]2C[C@@H]3O[C@]3(C)CCC[C@H](C)[C@H](O)[C@@H](C)C(=O)C(C)(C)[C@@H](O)CC(=O)O2)cs1 [Compound 9, Epothilone B10] | 1.5 ng/mL (≈ 0.00288 µM) |
| C/C(=C\c1csc(C)n1)[C@@H]1C/C=C\C=C\C[C@H](C)[C@H](O)[C@@H](C)C(=O)C(C)(C)[C@@H](O)CC(=O)O1 [Compound 24, Epothilone C6] | 120 ng/mL (≈ 0.252 µM) |
| C/C1=C/C[C@@H](/C(C)=C/c2csc(C)n2)OC(=O)C[C@H](O)C(C)C(=O)C(C)CCC1 (stereo partly shown) [Compound 36, Epothilone K] | 180 ng/mL (≈ 0.429 µM) |
| C/C(=C\c1csc(C)n1)[C@@H](O)C/C=C\CCC[C@H](C)[C@H](O)[C@@H](C)C(=O)C(C)C [Compound 37] | 50 ng/mL (≈ 0.123 µM) |
